Values after ≈ are worked out from the molar mass of the structure shown.

The text below walks through data of paper PMC12693701, “Glucosinolate-Derived Metabolites from Barbarea vulgaris (Brassicaceae): Evaluation of Antimicrobial, Antioxidant, and Anti-Inflammatory Potentials” (Molecules, 2025).

Assay [1] has as its system T. viride ATCC 13233. In words: Microdilution MIC/MMC. Type of assay: cell-based, Trichoderma viride. To be noted: T. viride ATCC 13233, reference antibiotics/antimycotic; for MIC: Trichoderma viride, ATCC13233, read-out: MIC. The protocol:
(§1) The antimicrobial activity was evaluated against 15 microorganisms. This included 11 bacterial strains: four standard strains (Staphylococcus aureus ATCC 25923, Bacillus subtilis ATCC 6633, Bacillus pumilus NCTC 8241, and Escherichia coli ATCC 25922) and six clinical or environmental isolates (Staphylococcus aureus, Escherichia coli, Bacillus cereus, Proteus mirabilis, Salmonella enterica, and Klebsiella pneumoniae). One probiotic strain, Bifidobacterium animalis subsp. lactis was tested. In addition, four fungal strains, Candida albicans ATCC 10231, Trichoderma viride ATCC 13233, Aspergillus flavus ATCC 9170, and Fusarium solani ATCC 11712 were tested. The bacterial strains were kept in glycerol stock at −80 °C and the fungal strains in paraffin oil stock at 4 °C.
(§2) Bacterial and yeast suspensions were prepared using the direct colony method, as previously described by Andrews. The turbidity of the initial suspensions was adjusted to match the 0.5 McFarland standard using a densitometer (Biosan, Riga, Latvia), corresponding to approximately 10^8 colony-forming units (CFU)/mL for bacterial cells and 10^6 CFU/mL for yeast cells. Subsequently, 1:100 dilutions of the initial suspensions were prepared in sterile 0.85% saline. Fungal spore suspensions were obtained by gently harvesting spores from agar slopes containing mature mycelial growth. The collected spore suspensions were then diluted 1:1000 in sterile 0.85% saline prior to use.
(§3) Antimicrobial activity was evaluated by determining the minimum inhibitory concentration (MIC) and minimum microbicidal concentration (MMC) using the microdilution plate method with resazurin as an indicator [28]. In the 96-well plates, 100 μL of Mueller–Hinton broth (Torlak, Belgrade, Serbia) for bacterial testing and Sabouraud broth (Torlak, Belgrade, Serbia) for fungal testing were dispensed into each well. The compounds under investigation were initially dissolved in a 10% dimethyl sulfoxide (DMSO) solution, followed by dilution in sterile distilled water, resulting in a working compound solution containing 1% DMSO. A 100 μL aliquot of the stock solution of the tested compound was added to the first row, and twofold serial dilutions were then carried out using a multichannel pipette. The resulting concentration range was from 5 to 0.039 mg/mL. The inoculated microtiter plates were incubated at 37 °C for 24 h for bacteria, at 28 °C for 48 h for yeasts, and at 28 °C for 72 h for molds.
(§4) Each test also included growth control and sterility control. All tests were conducted in duplicate. MIC was defined as the lowest concentration of tested compounds that prevented resazurin color change from blue to pink. For molds, MIC values of the tested compound were determined as the lowest concentration that inhibited visible mycelia growth. MMC was determined by inoculation of the nutrient agar medium by plating […] of samples from wells, where no indicator color change was recorded. At the end of the incubation period, the lowest concentration with no growth (no colony) was defined as MMC.
(§5) Doxycycline, ampicillin and amphotericin B (- Sigma-Aldrich, St. Louis, MO, USA) and ketoconazole (Hemofarm A.D., Vršac, Serbia) were dissolved in a nutrient liquid medium. Doxycycline is a broad-spectrum antibiotic effective against both aerobic and anaerobic Gram-positive and Gram-negative bacteria. Ampicillin, a beta-lactam antibiotic, primarily targets Gram-positive bacteria but also some Gram-negative strains. Amphotericin B is an antifungal drug often used for serious systemic fungal infections and is one of the effective treatments for fungal infections caused by Aspergillus sp. Ketoconazole is an antifungal agent used to inhibit the growth of Candida species.

Assay [2] concerns A. flavus ATCC 9170. Nature of the assay: Microdilution MIC/MMC. Type of assay: cell-based, Aspergillus flavus. To be noted: A. flavus ATCC 9170, reference antibiotics/antimycotic; for MIC: Aspergillus flavus, ATCC9170, read-out: MIC. The protocol:
as §1, §2, §3, §4, §5

The subject of assay [3] is C. albicans ATCC 10231. In words: Microdilution MIC/MMC with resazurin. Type of assay: cell-based, Candida albicans. Conditions: C. albicans ATCC 10231, reference antibiotics/antimycotic; for MIC: Candida albicans, ATCC10231, read-out: MIC. The protocol: as §1, §2, §3, §4, §5
For assay [4], the system named is P. mirabilis. Nature of the assay: Microdilution MIC/MMC with resazurin. Type of assay: cell-based, Proteus mirabilis. To be noted: P. mirabilis, reference antibiotics/antimycotic; for MIC: Proteus mirabilis, read-out: MIC. The protocol: as §1, §2, §3, §4, §5
Assay [5] has as its system B. cereus. Nature of the assay: Microdilution MIC/MMC with resazurin. Format: cell-based, Bacillus cereus. Conditions: B. cereus, reference antibiotics/antimycotic; for MIC: Bacillus cereus, read-out: MIC. The protocol:
as §1, §2, §3, §4, §5

Assay [6] has as its system B. animalis subsp. lactis. Nature of the assay: Microdilution MIC/MMC with resazurin. Format: cell-based, Bifidobacterium animalis subsp. lactis. Conditions: B. animalis subsp. lactis, reference antibiotics/antimycotic; for MIC: Bifidobacterium animalis, read-out: MIC. The protocol: as §1, §2, §3, §4, §5
Assay [7] relates to K. pneumoniae. In words: Microdilution MIC/MMC with resazurin. To be noted: K. pneumoniae, reference antibiotics/antimycotic; for MIC: Klebsiella pneumoniae, read-out: MIC. Format: cell-based, Klebsiella pneumoniae. The protocol: as §1, §2, §3, §4, §5
Assay [8] relates to S. enterica. Nature of the assay: Microdilution MIC/MMC with resazurin. Format: cell-based, Salmonella enterica. To be noted: reference antibiotics/antimycotic; for MIC: Salmonella enterica. The protocol: as §1, §2, §3, §4, §5
Assay [9] deals with B. subtilis ATCC 6633. In words: Microdilution MIC/MMC with resazurin. Type of assay: cell-based, Bacillus subtilis. To be noted: B. subtilis ATCC 6633, reference antibiotics/antimycotic; for MIC: Bacillus subtilis, ATCC6633, read-out: MIC. The protocol: as §1, §2, §3, §4, §5
Assay [10] has as its system S. aureus. Nature of the assay: Microdilution MIC/MMC with resazurin. Format: cell-based, Staphylococcus aureus. Conditions: S. aureus isolate, reference antibiotics/antimycotic; for MIC: Staphylococcus aureus, read-out: MIC. The protocol:
as §1, §2, §3, §4, §5

Assay [11] has as its system S. aureus ATCC 25923. Nature of the assay: Microdilution MIC/MMC with resazurin. To be noted: S. aureus ATCC 25923, reference antibiotics/antimycotic; for MIC: Staphylococcus aureus, ATCC25923, read-out: MIC. Format: cell-based, Staphylococcus aureus. The protocol: as §1, §2, §3, §4, §5
For assay [12], the system named is E. coli ATCC 25922. Nature of the assay: Microdilution MIC/MMC with resazurin. Format: cell-based, Escherichia coli. To be noted: E. coli ATCC 25922, reference antibiotics/antimycotic; for MIC: Escherichia coli, ATCC25922, read-out: MIC. The protocol:
as §1, §2, §3, §4, §5

Assay [13] relates to E. coli. Nature of the assay: Microdilution MIC/MMC with resazurin. Type of assay: cell-based, Escherichia coli. To be noted: E. coli isolate, reference antibiotics/antimycotic; for MIC: Escherichia coli, read-out: MIC. The protocol:
as §1, §2, §3, §4, §5

Assay [14] can be described thus: ABTS radical scavenging assay. Conditions: mean ± SD. The protocol:
The ABTS radical cation solution was prepared following the previously described protocol. Different concentrations of the analyzed samples were prepared in DMSO. The test samples were prepared following the specified procedure: 20 µL of sample was combined with 980 µL of methanol, followed by the addition of 1000 µL of ABTS solution. Absorbance was measured at 734 nm. All measurements were performed in triplicate.

In assay [15] the test system is F. solani ATCC 11712. In words: Microdilution MIC/MMC. To be noted: F. solani ATCC 11712, reference antibiotics/antimycotic. Format: cell-based, Fusarium solani. The protocol:
as §1, §2, §3, §4, §5

For assay [16], the system named is B. pumilus NCTC 8241. Nature of the assay: Microdilution MIC/MMC with resazurin. Format: cell-based, Bacillus pumilus. Conditions: B. pumilus NCTC 8241, reference antibiotics/antimycotic. The protocol:
as §1, §2, §3, §4, §5

For `C[C@@H]1[C@H](O)[C@@H](C)/C=C/C=C/C=C/C=C/C=C/C=C/C=C/[C@H](O[C@@H]2O[C@H](C)[C@@H](O)[C@H](N)[C@@H]2O)C[C@@H]2O[C@](O)(C[C@@H](O)C[C@@H](O)[C@H](O)CC[C@@H](O)C[C@@H](O)CC(=O)O[C@H]1C)C[C@H](O)[C@H]2C(=O)O` [Amphotericin B, reference compound], the MMC is given as 1.56 µg/mL in assay [1], 0.78 µg/mL in assay [2] and less than 0.098 µg/mL in assay [3]. In addition, the MIC in assay [1] is 0.78 µg/mL (≈ 0.844 µM); in assay [2] it was 0.39 µg/mL (≈ 0.422 µM); in assay [3] it was less than 0.098 µg/mL.

Consider `C[C@H]1c2cccc(O)c2C(=O)C2=C(O)[C@]3(O)C(=O)C(C(N)=O)=C(O)[C@@H](N(C)C)[C@@H]3[C@@H](O)[C@@H]21` [Doxycycline, reference compound], for which the MMC in assay [4] is listed as 62.5 µg/mL; in assay [5] it was 7.81 µg/mL; in assay [6], 8 µg/mL; in [7] it was 32 µg/mL; in assay [9] it was 31.25 µg/mL; in assay [10], 7.81 µg/mL. For the same compound, the results for the MMC in assay [11], in assay [12] and in assay [13] were 3.75 µg/mL, 31.25 µg/mL and 62.5 µg/mL, respectively. Also, the MIC in assay [4] stood at 15.6 µg/mL (≈ 35.2 µM); in [5] it was 0.977 µg/mL (≈ 2.2 µM); in [6], 4 µg/mL (≈ 9 µM); in assay [7], 2 µg/mL (≈ 4.5 µM); in assay [8] it was 15.6 µg/mL (≈ 35.2 µM); in assay [9], 1.95 µg/mL (≈ 4.39 µM). In addition, the MIC was 0.45 µg/mL (≈ 1.01 µM) in [10], 0.224 µg/mL (≈ 0.504 µM) in assay [11], 15.6 µg/mL (≈ 35.2 µM) in assay [12] and 15.6 µg/mL (≈ 35.2 µM) in assay [13].

Turning to `Cc1c(C)c2c(c(C)c1O)CCC(C)(C(=O)O)O2` (stereo not shown) [Trolox, reference compound], the figures for the “ABTS Scavenging Ability” value in [14] (25 µM), in assay [14] (50 µM) and in assay [14] (100 µM) were 97.5 ± 0.2%, 99.3 ± 0.1% and 99.5 ± 0.3%, respectively.

With `CC(=O)N1CCN(c2ccc(OCC3COC(Cn4ccnc4)(c4ccc(Cl)cc4Cl)O3)cc2)CC1` (stereo not shown) [Ketoconazole, reference compound], the MMC is on record as 125 µg/mL in assay [1], 1.96 µg/mL in assay [2], 0.156 µg/mL in assay [15] and 1.96 µg/mL in assay [3]. Also, the MIC in assay [1] was 62.5 µg/mL (≈ 118 µM); in [2], less than 0.49 µg/mL; in assay [15] (Fusarium solani, ATCC11712, read-out: MIC), 0.08 µg/mL (≈ 0.151 µM); in assay [3], 1.96 µg/mL (≈ 3.69 µM).

As for `CC1(C)S[C@@H]2[C@H](NC(=O)[C@H](N)c3ccccc3)C(=O)N2[C@H]1C(=O)O` [Ampicillin, reference compound], the MMC in assay [4] is greater than 128 µg/mL; in [5], 6 µg/mL; in assay [16], 12 µg/mL; in assay [6], 0.12 µg/mL; in assay [7], greater than 128 µg/mL; in [8] it was 1 µg/mL. For the same compound, the MMC in assay [9] is on record as 4 µg/mL; in assay [10], less than 0.06 µg/mL; in assay [11], 0.75 µg/mL; in assay [12], 0.5 µg/mL; in [13] it was 2.1 µg/mL. Also, the MIC in assay [4] is greater than 128 µg/mL; in [5], 4 µg/mL (≈ 11.4 µM); in assay [16] (Bacillus pumilus, NCTC8241, read-out: MIC), 8 µg/mL (≈ 22.9 µM); in assay [6], less than 0.06 µg/mL; in assay [7] it was greater than 128 µg/mL; in [8], 1 µg/mL (≈ 2.86 µM). For the same compound, the MIC in assay [9] is 3 µg/mL (≈ 8.59 µM); in assay [10], less than 0.06 µg/mL; in assay [11], 0.25 µg/mL (≈ 0.715 µM); in assay [12], 0.37 µg/mL (≈ 1.06 µM); in assay [13], 1.2 µg/mL (≈ 3.43 µM).
